Test results as given in BindingDB's records for patent US11286268 (eFFECTOR Therapeutics, Inc., 2022).

Target: Eukaryotic translation initiation factor 4E (Homo sapiens, UniProt P06730)
Experiment: Fluorescence Polarization Assay
Description: eIF4E protein was pre-incubated with EDA-m7GDP-ATTO-550 in FPB at 2xconcentrations for 5 minutes prior to the addition of compounds. Compounds (100x) were prepared using 3-fold serial dilutions in 100% DMSO, and subsequently diluted 1:50 in FPB to produce 2x stocks. 50 ul of 2x eIF4E/EDA-m7GDP-ATTO-550 were transferred to the wells of a 96-well half-area black flat bottom polystyrene plate. 50 ul of 2x test compound were added, and binding reactions were allowed to equilibrate for 30 minutes at room temperature while protected from light. The fluorescent polarization signal was detected using a Victor 2 multi-label counter (Perkin Elmer) and the concentration necessary to achieve inhibition of eIF4E/EDA-m7GDP-ATTO-550 binding by 50% (IC50) was calculated using data from an 8-point compound dilution series.

Sequence of Eukaryotic translation initiation factor 4E (P06730 whole entry): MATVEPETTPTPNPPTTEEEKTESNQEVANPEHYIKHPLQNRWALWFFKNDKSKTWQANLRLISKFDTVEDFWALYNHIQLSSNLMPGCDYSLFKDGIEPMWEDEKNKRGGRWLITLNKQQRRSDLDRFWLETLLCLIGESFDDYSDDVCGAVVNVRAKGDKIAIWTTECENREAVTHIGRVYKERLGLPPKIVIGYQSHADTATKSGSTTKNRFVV

SMILES | IC50 [µM]
Cc1nc2cnc(C(=O)C3CCN(CC(F)F)CC3)c(C#N)c2c(=O)n1CCOc1ccc(Cl)cc1-c1ccnc2c(C(=O)O)csc12 [US11286268, Compound 1440] | 0.069
Cc1nc2cc(C(F)(F)F)cc(C#N)c2c(=O)n1CCOc1ccc(Cl)cc1-c1cc(C(C)C)nc2c(C(=O)O)csc12 [US11286268, Compound 1902] | 0.0842
Cc1nc2cnc(N3CC4(C3)CN(C3(C)CC(F)(F)C3)C4)c(C#N)c2c(=O)n1CCOc1ccc(Cl)cc1-c1ccnc2c(C(=O)O)csc12 [US11286268, Compound 1435] | 0.0264
Cc1nc2cnc(NC3CC[N+](C)(CC(F)F)CC3)c(C#N)c2c(=O)n1CC#Cc1ccc(Cl)cc1-c1ccnc2c(C(=O)O)csc12 (stereo not drawn) [US11286268, Compound 1663] | 0.0141
Cc1nc2cnc(N(C)C3CCN(CC(F)F)CC3)c(C#N)c2c(=O)n1CCOc1ccc(Cl)cc1-c1ccnc2c(C(=O)O)csc12 [US11286268, Compound 1318] | 0.0344
Cc1nc2cnc(N3CC4(C3)CN(C3CCC3)C4)c(C#N)c2c(=O)n1CCOc1ccc(Cl)cc1-c1ccnc2c(C(=O)O)csc12 [US11286268, Compound 1437] | 0.0373
Cc1nc2cnc(N3CCN(C4CC4)C(C(F)F)C3)c(C#N)c2c(=O)n1CCOc1ccc(Cl)cc1-c1ccnc2c(C(=O)O)csc12 (stereo not drawn) [US11286268, Compound 1439] | 0.0128
N#Cc1ccc(OCCn2cnc3cnc(C#N)cc3c2=O)c(-c2cccc(C(=O)O)c2)c1 [US11286268, Compound 2026] | 0.656

The next compounds have a lower IC50 than those just listed; values first:

IC50 [µM] | SMILES
0.0106 | Cc1nc2cnc(N(C)CC3CCN(CC(F)F)CC3)c(C#N)c2c(=O)n1CC#Cc1ccc(Cl)cc1-c1ccnc2c(C(=O)O)csc12 [US11286268, Compound 1541]
0.00687 | CCN(c1ncc2nc(C)n(CC#Cc3ccc(Cl)cc3-c3ccnc4c(C(=O)NS(=O)(=O)CF)csc34)c(=O)c2c1C#N)C1CCN(C2COC2)CC1 [US11286268, Compound 1743]
0.00659 | CCN(c1ncc2nc(C)n(CC#Cc3ccc(Cl)cc3-c3ccnc4c(C(=O)NS(=O)(=O)C5COC5)csc34)c(=O)c2c1C#N)C1CCN(CC(F)(F)C(F)F)CC1 [US11286268, Compound 1608]
0.00488 | CCN(c1ncc2nc(C)n(CC#Cc3ccc(Cl)cc3-c3ccnc4c(C(=O)NS(=O)(=O)c5ccccn5)csc34)c(=O)c2c1C#N)C1CCN(CC(F)(F)C(F)F)CC1 [US11286268, Compound 1609]
0.00212 | Cc1nc2cnc(N(C)C3CCN(CC(C)(F)F)CC3)c(C#N)c2c(=O)n1CC#Cc1ccc(Cl)cc1-c1ccnc2c(C(=O)NS(=O)(=O)C(F)(F)F)csc12 [US11286268, Compound 1603]
